The record followed here is PubChem BioAssay AID1996.

Values after ≈ are worked out from the molar mass of the structure shown.

Usually kinetic solubility stands for the concentration staying in solution when a stock, usually in DMSO, is diluted into the medium.

The conditions of the series: buffer; pH 7.4; 200.0 µM.
As for `S=C(NCCCN1CCOCC1)N1CCOCC1`, the kinetic solubility was more than 41 µg/mL.
To `Cc1cc(C)cc(NC(=S)N2CCCC2)c1` belongs more than 35.2 µg/mL.
Under `COc1ccccc1Nc1nc(-c2sc(N)nc2C)cs1` stands 19.2 µg/mL (≈ 60.3 µM); under `COc1cccc(C(=O)OCC(=O)NCCC2=CCCCC2)c1`, 25.8 µg/mL (≈ 81.3 µM); under `Cc1cccc(/N=C/c2sc3ccccc3c2O)n1`, 1.1 µg/mL (≈ 4.1 µM).
`CC(C)(C)c1ccccc1NC(=O)CN1C(=O)NC2(CCCC2)C1=O`: the solubility (kinetic) stood at 6.1 µg/mL (≈ 17.8 µM).
To `Cc1cc(C)nc(NC(=O)c2cccc(Br)c2)n1` belongs 39.8 µg/mL (≈ 130 µM).
To `CCCCNC(=O)NS(=O)(=O)c1ccc(C)cc1` belongs more than 40.6 µg/mL.
Under `O=S(=O)(NC1=NCCC1)c1cccc(NC(=S)Nc2ccc(OC(F)F)cc2)c1` stands more than 66.1 µg/mL; under `COc1ccc(S(=O)(=O)N2CCCC2)cc1C(=O)O`, more than 42.8 µg/mL.
As to `Cn1c(SCC(=O)NC2CCS(=O)(=O)C2)nc2ccccc21` (stereo not given), the kinetic solubility is more than 50.9 µg/mL.
As for `O=C(Nc1cccnc1Cl)c1cc(-c2ccccc2O)on1`, the kinetic solubility was 0.9 µg/mL (≈ 2.85 µM).
Under `N#Cc1ccccc1COC(=O)c1ccc(Br)o1` stands 28.4 µg/mL (≈ 92.8 µM).
On to `O=C1c2cccc3c([N+](=O)[O-])ccc(c23)C(=O)N1CCc1ccccn1`, for which the kinetic solubility was 0.4 µg/mL (≈ 1.15 µM).
To `O=C(COC(=O)c1cccs1)Nc1ccc(Cl)cn1` belongs 3.1 µg/mL (≈ 10.4 µM).
To `Cc1cc(Nc2ccccc2Cl)nc(-c2ccccc2O)n1` belongs 1.3 µg/mL (≈ 4.17 µM); to `O=C(NCCCNC(=O)c1ccccn1)c1cccc(F)c1`, 42.3 µg/mL (≈ 140 µM); to `c1cncc(C2OCC3(CO2)COC(c2cccnc2)OC3)c1` (stereo not given), more than 47.2 µg/mL.
Under `CC1(C)CCC(=O)C=C1Nc1ccc(F)c(Cl)c1` stands 38.2 µg/mL (≈ 143 µM); under `CC1CCC(NC(=O)CCNS(=O)(=O)c2ccccc2)CC1` (stereo not given), more than 48.7 µg/mL; under `O=Cc1c(NCCc2ccc(F)cc2)c2ccccc2[nH]c1=O`, 34.8 µg/mL (≈ 112 µM).
`C/C(=N\O)c1ccn(S(=O)(=O)c2ccc(Cl)cc2)c1` displayed a solubility (kinetic) of 8.4 µg/mL (≈ 28.1 µM).
Regarding `Cc1cccnc1NC(=O)c1ccc(Cl)c(S(=O)(=O)N2CCCC2)c1`, the kinetic solubility was more than 57 µg/mL.
To `C=CCn1c(SCC(=O)Nc2ccc(C(=O)O)cc2)nc2scc(-c3ccccc3)c2c1=O` belongs more than 71.6 µg/mL; to `CCN(CC)c1ccc(NC(=S)NCC2CCCO2)cc1` (stereo not given), 34.1 µg/mL (≈ 111 µM); to `O=C(O)c1ccc(/C=N/Nc2ncc(Cl)cc2Cl)cc1`, more than 46.5 µg/mL.
To `O=C(c1ccc(N2C(=O)c3ccccc3C2=O)cc1)N1CCCCC1` belongs more than 50.2 µg/mL; to `C=CCNC(=O)COC(=O)c1ccc(Cl)c(S(N)(=O)=O)c1`, more than 49.9 µg/mL.
To `CC(Cc1cccs1)NCc1ccc(Cl)cc1` (stereo not given) belongs 22.6 µg/mL (≈ 85 µM); to `COc1c(S(=O)(=O)N2CCN(C)CC2)ccc(Cl)c1Cl`, 45.6 µg/mL (≈ 134 µM).
Compound `Cl.O=C1NCC2(CCN(CCc3ccccc3)CC2)O1` showed a solubility (kinetic) of more than 44.5 µg/mL.
Under `CN(CCO)c1nc(N)c(C#N)c(CC#N)c1C#N` stands more than 38.4 µg/mL; under `Cc1ccc(C(=O)OC(C)C(=O)NC2CCCCC2C)s1` (stereo not given), 14.6 µg/mL (≈ 47.2 µM); under `Nc1ccc(Oc2ccc3c(c2)C(=O)N(CC2CCCO2)C3=O)cc1` (stereo not given), more than 50.8 µg/mL.
To `Cc1cc(=O)n2c(-c3ccc(Cl)cc3)csc2n1` belongs 7.9 µg/mL (≈ 28.5 µM); to `CCOc1ccc(NC(=O)CN2CCc3ccccc3C2)cc1`, 34 µg/mL (≈ 110 µM).
Under `CC(=O)Nc1ccc(NC(=O)/C=C/c2ccc(Cl)cc2)cc1` stands less than 0.3 µg/mL; under `Cc1ccccc1NC(=O)/C=C/c1cccs1`, 19.5 µg/mL (≈ 80.1 µM).
Compound `OCC1(CC2CCCCO2)CCN(Cc2cccc(O)c2)CC1` (stereo not given) registered a kinetic solubility of 47.3 µg/mL (≈ 148 µM).
To `COC(=O)COc1ccc(NC(=O)c2ccco2)cc1` belongs 39.1 µg/mL (≈ 142 µM); to `CCOC(=O)c1cc(C)nc(Sc2ccc(C)cc2)c1C#N`, 3.1 µg/mL (≈ 9.92 µM).
Under `COc1cc(Br)c(CC(=O)NC2CC2)cc1OC` stands more than 47.1 µg/mL; under `Cc1ccccc1OCC1Cn2c(nc3c2c(=O)n(C)c(=O)n3C)O1` (stereo not given), more than 51.4 µg/mL; under `COc1ccc(S(=O)(=O)N(C)CC(=O)NC2CC2)cc1OC`, more than 49.3 µg/mL.
To `CC(=O)Nc1ccc(Oc2ccc3c(c2)C(=O)NC3=O)cc1` belongs 16.9 µg/mL (≈ 57 µM); to `O=C(COC(=O)c1ccc([N+](=O)[O-])o1)NC12CC3CC(CC(C3)C1)C2`, more than 52.3 µg/mL; to `O=C1CCC([N+](=O)[O-])C(c2ccccc2C(F)(F)F)N1` (stereo not given), more than 43.2 µg/mL.
The compound `O=C(Nc1ccc(C(=O)OC2CCCCC2)cc1)c1ccncc1` gave a solubility (kinetic) of 2.8 µg/mL (≈ 8.63 µM).
Under `O=C(NC1CCCC1)C1CCCN(C(=O)Nc2ccccc2)C1` (stereo not given) stands 43.9 µg/mL (≈ 139 µM).
To `Cn1c(=O)c2cc3ccc(Cl)cc3nc2n(C)c1=O` belongs 0.4 µg/mL (≈ 1.45 µM).
To `COc1ccc(-c2cnc(N)nc2-c2ccc(OC)cc2)cc1` belongs 2.8 µg/mL (≈ 9.11 µM); to `Cc1ccc(C(=O)N2C(=O)C(c3ccccc3)Oc3ccccc32)cc1` (stereo not given), less than 0.7 µg/mL; to `O=C(CCN1C(=O)S/C(=C\c2ccccc2)C1=O)N1CCCCC1`, 20.6 µg/mL (≈ 59.8 µM).
With `CS/C(=C\C(=O)c1ccco1)Nc1ccccc1Cl`, the solubility (kinetic) amounted to 10.4 µg/mL (≈ 35.4 µM).
Under `O=C1CCCC2=C1C(c1cccs1)CC(=O)N2c1ccc(F)cc1` (stereo not given) stands 40.7 µg/mL (≈ 119 µM).
Under `CCCN(CC1CC1)C(=O)CSc1ncnc2sccc12` stands more than 48.2 µg/mL; under `Cc1ccc(CNC(=O)CSCc2ccccc2F)cc1`, 43.1 µg/mL (≈ 142 µM).
Under `CC(CCc1ccccc1)NC(=O)COC(=O)c1cccn1C` (stereo not given) stands more than 47.2 µg/mL; under `Cn1cc(S(=O)(=O)NC2CCCC2)c(=O)n(C)c1=O`, more than 43.1 µg/mL; under `CCOc1ccc(NC(=O)CN(C)C(=O)C2CCCC2)cc1OCC`, 37.6 µg/mL (≈ 108 µM).
The compound `COC(=O)C/C(N)=C(\C#N)C(=O)OC` returned a kinetic solubility of more than 29.7 µg/mL.
In the case of `COC(=O)c1sccc1NC(=O)Nc1ccc(C)c(C)c1`, the kinetic solubility was 20.7 µg/mL (≈ 68 µM).
In turn, `COc1ccc(-c2csc(N=C(N)N)n2)cc1` yielded a kinetic solubility of 12.2 µg/mL (≈ 49.1 µM).
To `CC1CC(NC(=O)/C=C/C(=O)O)CC(C)(C)C1` (stereo not given) belongs more than 35.9 µg/mL; to `Cc1cc(C(=O)N2CCC3(CC2)OCCO3)no1`, more than 37.8 µg/mL; to `COc1ccc(C(=O)Nc2cnccn2)cc1[N+](=O)[O-]`, 13.9 µg/mL (≈ 50.7 µM).
Under `Cc1ccc(S(=O)(=O)NC(=O)c2cccc(C)c2)cc1` stands more than 43.4 µg/mL; under `CC(NC(=O)C(=O)NCC1CCCO1)c1ccccc1` (stereo not given), more than 41.5 µg/mL.
Under `CCOc1cc(/C=C2\NC(=O)NC2=O)ccc1OC(C)C(=O)O` (stereo not given) stands more than 48 µg/mL; under `O=C1CSC(c2cccnc2)N1c1cccc(Cl)c1` (stereo not given), 43.3 µg/mL (≈ 149 µM).
In turn, `Cc1ccc(NC2c3ccccc3C(=O)N2c2cccnc2)cc1` (stereo not given) displayed a solubility (kinetic) of 40.5 µg/mL (≈ 128 µM).
Under `Cc1cc(NC(=O)NC(=O)c2ccccc2)no1` stands 2.8 µg/mL (≈ 11.4 µM); under `Cc1ccc(OS(=O)(=O)c2ccc(N3C(=O)CCC3=O)cc2)cc1`, 18.3 µg/mL (≈ 53 µM); under `CCCC(=O)Nc1cc2c3c(c1)CC(=O)N3CCC2`, more than 38.7 µg/mL.
As to `O=C(NCCCN1CCCC1)Nc1ccc(F)cc1`, the solubility (kinetic) was determined as 35.2 µg/mL (≈ 133 µM).
To `COc1cccc(CN2C(=O)c3ccccc3S2(=O)=O)c1` belongs 30 µg/mL (≈ 98.9 µM); to `Cn1c(=O)c2sccc2n(Cc2cccc(Br)c2)c1=O`, 1.4 µg/mL (≈ 3.99 µM).
To `O=C(Nc1ccccc1)N(C1=NCCC1)c1ccccc1` belongs 5.4 µg/mL (≈ 19.3 µM); to `COc1ccc(CNC(=O)N[C@@H](CC(C)C)C(=O)O)cc1OC`, more than 48.7 µg/mL.
To `Cc1ccc(C(=O)Cc2nc3ccccc3[nH]2)cc1` belongs 30.5 µg/mL (≈ 122 µM); to `O=C(Nc1cccc(Cl)c1)c1cnc[nH]1`, more than 33.2 µg/mL.
`CC(C1CC1)N(C(=O)c1ccccc1[N+](=O)[O-])c1ccccc1` (stereo not given) showed a kinetic solubility of 13 µg/mL (≈ 41.9 µM).
On to `COc1cc(NC(=O)CCN2CCN(C)CC2)cc(OC)c1`, for which the kinetic solubility was more than 46.1 µg/mL.
Under `Cc1cc(=O)oc2cc(NC(=O)C3CCCC3)ccc12` stands 3 µg/mL (≈ 11.1 µM).
To `Cl.O=C(NCCN1CCOCC1)c1ccc(S(=O)(=O)Nc2ccccc2)cc1` belongs more than 63.9 µg/mL; to `Clc1ccc(OCCNCCc2ccccc2)cc1.O=C(O)C(=O)O`, more than 54.9 µg/mL; to `O=CN1CCN(C(=S)Nc2ccc(OC(F)F)cc2)CC1`, more than 47.3 µg/mL.
`OCC(O)CN1CCN(c2ccccc2)CC1` (stereo not given) gave a kinetic solubility of more than 35.4 µg/mL.
Under `COc1ccc(-c2cc(C(=O)NCc3cccs3)no2)cc1` stands 0.3 µg/mL (≈ 0.954 µM); under `O=C(/C=C/c1ccco1)NC(=S)N1CCCCC1`, 27.4 µg/mL (≈ 104 µM).
With `O=C(NC(=S)Nc1ccccc1N1CCCC1)c1cccs1`, the kinetic solubility came to 3.2 µg/mL (≈ 9.65 µM).
Under `Cc1cccc(NC(=O)NC2CC3CCC(C2)N3Cc2ccco2)c1` (stereo not given) stands 11.1 µg/mL (≈ 32.7 µM); under `Cc1ccc(OCC(O)CNC2CCCC2)cc1C.Cl` (stereo not given), more than 45 µg/mL.
Turning to `Cn1c(=O)c2nc(-c3ccccc3)c(-c3ccccc3)nc2n(C)c1=O`, the kinetic solubility is 0.9 µg/mL (≈ 2.61 µM).
As to `CCOC(=O)c1cccc(NC(=O)CC2Oc3ccccc3NC2=O)c1` (stereo not given), the solubility (kinetic) turned out to be 1.8 µg/mL (≈ 5.08 µM).
Turning to `C=CCNC(=O)C1CC1(c1ccc(C)cc1)c1ccc(C)cc1` (stereo not given), the kinetic solubility turned out to be 30.6 µg/mL (≈ 100 µM).
To `COc1cc(/C=C/C(=O)OCC(=O)NCCCc2ccccc2)cc(OC)c1OC` belongs 27.8 µg/mL (≈ 67.2 µM); to `COc1ccc(OC)c(C(O)C2CCCCN2)c1.Cl` (stereo not given), more than 43.2 µg/mL; to `CC(C)(C)c1ccc(NC(=O)c2cc[n+]([O-])cc2)cc1`, 36.1 µg/mL (≈ 134 µM).
Under `CCOC(=O)c1c(N=CN(C)C)c2cc([N+](=O)[O-])cnc2n1C` stands 35 µg/mL (≈ 110 µM); under `CCOC(=O)C(NC(C)=O)C(O)c1ccc([N+](=O)[O-])cc1` (stereo not given), 43.2 µg/mL (≈ 146 µM).
Take `N/C(=N\OC(=O)c1ccc(Br)o1)c1cccnc1`: the solubility (kinetic) stood at 39.1 µg/mL (≈ 126 µM).
To `COc1ccc(/C=C/C(=O)O)cc1S(=O)(=O)NCC1CCCO1` (stereo not given) belongs 41.3 µg/mL (≈ 121 µM); to `CC(C)CC(=O)Nc1ncc([N+](=O)[O-])s1`, more than 34.4 µg/mL; to `COc1ccc(CNC(=O)COC(=O)c2cccs2)cc1`, 29.1 µg/mL (≈ 95.3 µM).
